Test results as given in patent EP2787958B1, “CHELIDONIUM MAJUS EXTRACTS AND THEIR USE IN THE TREATMENT OF SKIN DISORDERS AND PROMOTION OF SKIN REGENERATION” (priority 2011, dated 2013).
Like-named read-outs stand apart in the source and are kept apart here.

Key:
[1] = test system: interleukin 1β (IL-1β); assay: Inflammatory cytokines in cell supernatant (Mosaic ELISA microarray): IL-1β; assay type: cell-based, Human; settings: for IL-1β ng/(ml* No. of cells from photo) ± SD: 24 hours; for IL-1β production (effect in words): 1-10 µM
Procedure: (§1) The inflammatory cytokines, CD40 ligand (CD40L), interferon γ (INF-γ), interleukin 1α (IL-1α), interleukin 1β (IL-1β), interleukin 6 (IL-6), interleukin 8 (IL-8), interleukin 17 (IL-17) and tumour necrosis factor α (TNF-α) were determined qualitatively and quantitatively. Each measurement was performed in duplicate using a Mosaic™ ELISA protein microarray assay system from R&D System in accordance with the supplier's instructions. Furthermore, with the aim of obtaining a correlation model between light signal intensity and cytokine concentration, a calibration curve using 6 concentrations was performed for each of them. Analysis of the data was performed using the dedicated Q-View™ Imager software package from Quansys Biosciences

[2] = test system: HDF cells; assay: Summary of uses and toxic effects deduced from the cell assays (Table 1); assay type: cell-based, Human
Procedure: Antiradical (skin protective): this is deduced from the free radical scavenger effects.
Revitalizing: this is deduced from the increased mitochondrial dehydrogenase effect.
Cytoprotective, with regard to oxidative damage (antioxidant, anti-inflammatory and anti-ageing): this is deduced from antagonising the stimulation of IL-1β and/or IL-6 induced by 100 µM H2O2 and from the absence of changes in cell morphology similar to the ones due to cell senescence.
Wound healing: this is deduced from the effect of inhibiting the production of IL-1β and by the effect of stimulating cell proliferation under standard growth conditions.
Cytotoxicity: this is deduced from the effect of reducing mitochondrial dehydrogenase activity or from the presence of morphologies characteristic of cell senescence.
Irritation: this is deduced from the effect of increased production of IL-6 and/or IL-1β under standard growth conditions.
Said uses in the fields of medicine and cosmetics or the toxic effects of the substances of the invention at a given dosage, for 24 hours, are summarized in Table 1 below.

[3] = test system: collagen produced by HDF cells; assay: Quantity of collagen produced by the cells (elution of Sirius Red); settings: 1-10 µM (1 µM and 10 µM)
[4] = Anti-radical activity (decay of the DPPH radical); assay type: biochemical; settings: for Anti-radical (skin protective): 24 hours
Procedure: With regard to assays aimed at evaluating anti-radical activity, a chemical test was used where the decay of the diphenylpicrylhydrazyl (DPPH) radical is assessed in the absence or in the presence of the test substances. Indeed, the DPPH radical is used to test the ability of substances to act as free radical scavengers. DPPH in solution has a purple colour with a maximum absorbance peak at 517 nm which changes to yellow-colourless when this radical extracts a hydrogen atom from a radical scavenger to give rise to the reduced form DPPH-H. The assay has been conducted in quadruplicate in 96 well microplates (SARSTEDT Tissue Culture Plate 96-well flat bottom cell+). 50 µl of an ethanol solution of the test substance at 2X concentration and then 50 µl of a 200 µM solution of DPPH (MW 168,18, Aldrich 2,2-di(4-tert-octylphenyl)-1-picrylhydrazyl, free radical Lot# MKBF7574V Cat N° 257621-100 mg) have been added to each well of the microplate. A positive control consisting of 0.1 mM vitamin C and a negative control consisting of ethanol alone were included in each microplate. After 30 minutes from the addition of DPPH, photographs of the plates were taken (Canon PowerShot A610 5.0 Mpixels) and read spectrophotometrically at 530 nm.
Based on the analysis of the results reported in Table 9, some substances were selected for further characterisation of their anti-radical activity. For the selected substances, dose-activity curves were obtained and the IC50 value were computed using a non-linear regression model with the Hill equation at variable slope. Such substances had been selected due to both their anti-radical potential and the easiness of their isolation/production. The selection of substances was made in view of cosmetics applications. Moreover their activity on human dermal fibroblasts (HDF) is expected to be useful also for the development of dermatological medications. The selected substances are discussed below.

[5] = test system: Human dermal fibroblasts (HDF); assay: Mitochondrial dehydrogenase activity (WST-1 formazan assay) in HDF cells; settings: for Revitalizing agent: 24 hours; for activity at 1 µM / activity at 10 µM: Homo sapiens, Fibroblast, read-out: % mitochondrial dehydrogenase activity ± SD
[6] = test system: HDF cells; assay: Evaluation of cell proliferation (counting of Sirius Red stained cells in photographs); settings: for No. of cells from photo ± SD: 24 hours
[7] = test system: interleukin 6 (IL-6); assay: Inflammatory cytokines in cell supernatant (Mosaic ELISA microarray): IL-6; assay type: cell-based, Human; settings: for IL-6 ng/(ml* No. of cells from photo) ± SD: 24 hours; for IL-6 production (effect in words): 1-10 µM
Procedure: as §1

[8] = Dose 1 µm (coptisine: 1 pm [sic]), 24 hours
[9] = Dose 1 µm (coptisine: 1 pm [sic])

c1cc2c(c3c1C[C@H]1c4cc5c(cc4CCN1C3)OCO5)OCO2 [stylopine]
IL-1β ng/(ml* No. of cells from photo) ± SD ([1]; 1 µM, 34 ng/ml TGF-β1): 97±3 ng/(ml* No. of cells from photo) | IL-1β ng/(ml* No. of cells from photo) ± SD ([1]; 1 µM, 100 µM H2O2): 100±4 ng/(ml* No. of cells from photo) | IL-1β ng/(ml* No. of cells from photo) ± SD ([1]; 1 µM, Standard conditions): 159±10 ng/(ml* No. of cells from photo) | IL-1β ng/(ml* No. of cells from photo) ± SD ([1]; 10 µM, 34 ng/ml TGF-β1): 109±14 ng/(ml* No. of cells from photo) | IL-1β ng/(ml* No. of cells from photo) ± SD ([1]; 10 µM, 100 µM H2O2): 88±10 ng/(ml* No. of cells from photo) | IL-1β ng/(ml* No. of cells from photo) ± SD ([1]; 10 µM, Standard conditions): 186±7 ng/(ml* No. of cells from photo) | IL-1β production (effect in words) ([1]; 34 ng/ml TGF-β1): antagonizes the production of IL-1β | IL-1β production (effect in words) ([1]; 100 µM H2O2): antagonizes the production of IL-1β | IL-1β production (effect in words) ([1]; standard conditions): inhibits the production of IL-1β | Cytotoxic [2]: No | Irritant [2]: No | Anti-fibrotic (prevention of scar formation, also from acne) [2, 8]: Yes (↓collagen, ↓IL-6, ↓IL-1β) | Cytoprotective (antioxidant, anti-inflammatory and anti-ageing; useful also in the treatment of acne) [2, 8]: Yes (↓IL-6, ↓IL-1β) | Wound-healing [2, 8]: Yes (↑profil) | Anti-fibrotic (prevention of scar formation, also from acne) ([2]; Dose 10 µm, 24 hours): Yes (↓collagen, ↓IL-6. ↓IL-1β) | Cytoprotective (antioxidant, anti-inflammatory and anti-ageing; useful also in the treatment of acne) ([2]; Dose 10 µm, 24 hours): Yes (↓IL-6, ↓IL-1β) | Cytotoxic ([2]; Dose 10 µm, 24 hours): No | Irritant ([2]; Dose 10 µm, 24 hours): No | Wound-healing ([2]; Dose 10 µm, 24 hours): No | concentrations at which no toxic (cytotoxic and irritant) effects are shown ([2]; exposure for 24 hours): less than or equal to 10 µM | collagen production (effect in words) ([3]; 34 ng/ml TGF-β1): antagonizes the stimulation of collagen induced by 34 ng/ml TGF-β1 | collagen production (effect in words) ([3]; 100 µM H2O2): tendency to inhibit collagen production | % DPPH activity ([4]; 1 mM, 30 minutes): 113% | Anti-radical (skin protective) [4, 9]: No | Anti-radical (skin protective) ([4]; Dose 10 µm): No | concentrations below which no significant effects on mitochondrial dehydrogenase activity are shown [5]: below 1 µM | mitochondrial dehydrogenase activity (effect in words) ([5]; 10 µM, exposure time 42 h): increased with respect to the control | mitochondrial dehydrogenase activity (effect in words) ([5]; 100 µM): less marked stimulation of mitochondrial dehydrogenase activity | Revitalizing agent [5, 9]: Yes** | Revitalizing agent ([5]; Dose 10 µm): Yes | activity at 1 µM ([5]; 18 h): 105 ± 9.5% | activity at 10 µM ([5]; 18 h): 107 ± 3% | activity at 1 µM ([5]; 42 h): 100 ± 15.8% | activity at 10 µM ([5]; 42 h): 151 ± 12.8% | activity at 1 µM ([5]; 46 h): 95.7% | activity at 10 µM ([5]; 46 h): 138 ± 23.9% | mitochondrial dehydrogenase activity (effect in words) ([5]; between 1 and 100 µM, exposure time 18 h): non-significant tendency to stimulate mitochondrial dehydrogenase activity in a dose-dependent manner | mitochondrial dehydrogenase activity (effect in words) ([5]; fibroblast cells, higher doses): inhibit mitochondrial dehydrogenase activity | mitochondrial dehydrogenase activity (effect in words) ([5]; fibroblast cells, low dosage): stimulate mitochondrial dehydrogenase activity | cell proliferation (effect in words) ([6]; 1 µM): tendency to stimulate cell proliferation | No. of cells from photo ± SD ([6]; 1 µM, 34 ng/ml TGF-β1): 237±19 | No. of cells from photo ± SD ([6]; 1 µM, 100 µM H2O2): 240±12 | No. of cells from photo ± SD ([6]; 1 µM, Standard conditions): 234± 7 | No. of cells from photo ± SD ([6]; 10 µM, 34 ng/ml TGF-β1): 210±17 | No. of cells from photo ± SD ([6]; 10 µM, 100 µM H2O2): 249±8 | No. of cells from photo ± SD ([6]; 10 µM, Standard conditions): 183±12 | IL-6 ng/(ml* No. of cells from photo) ± SD ([7]; 1 µM, 34 ng/ml TGF-β1): 447±8 ng/(ml* No. of cells from photo) | IL-6 ng/(ml* No. of cells from photo) ± SD ([7]; 1 µM, 100 µM H2O2): 583±25 ng/(ml* No. of cells from photo) | IL-6 ng/(ml* No. of cells from photo) ± SD ([7]; 1 µM, Standard conditions): 868±62 ng/(ml* No. of cells from photo) | IL-6 ng/(ml* No. of cells from photo) ± SD ([7]; 10 µM, 34 ng/ml TGF-β1): 528±33 ng/(ml* No. of cells from photo) | IL-6 ng/(ml* No. of cells from photo) ± SD ([7]; 10 µM, 100 µM H2O2): 449±2 ng/(ml* No. of cells from photo) | IL-6 ng/(ml* No. of cells from photo) ± SD ([7]; 10 µM, Standard conditions): 961±38 ng/(ml* No. of cells from photo) | IL-6 production (effect in words) ([7]; 34 ng/ml TGF-β1): antagonizes the production of IL-6 | IL-6 production (effect in words) ([7]; 100 µM H2O2): antagonizes the production of IL-6 | IL-6 production (effect in words) ([7]; standard conditions): inhibits the production of IL-6
